The values that follow come from patent US7205433B2, “Crystal of amino acid ester salt and process for producing the same” (Ajinomoto Co., Inc., priority 2002, dated 2007).

Common to all, as to assay type: physicochemical
The nature of data set [1]: Experimental Example 1: comparison of hygroscopicity by weight gain over time (44 to 45% RH). The settings on record: 22 to 24° C. The procedure:
L-Ala-OEt HCl salt and L-Ala-OEt MsOH salt were measured into in a glass container in an amount of 1.6 g each, dried in vacuo at 30° C. for 5 hours, left under conditions of temperature: 22 to 24° C., humidity: 44 to 45% RH, and then the hygroscopicity was compared based on the weight gain over the lapse of time. […] The liquefied portion increased with the lapse of time, and the entire salt became liquid 750 minutes later with no observable crystal.

Data set [2] is described as follows: Experimental Example 4: comparison of hygroscopicity by weight gain over time (40 to 46% RH). To be noted: 24° C. The method, then: The L-Ala-OEt HCl salt, L-Ala-OEt MsOH salt, L-Ala-OEt BsOH salt, L-Ala-OEt 4-CBS salt, L-Ala-OEt 4-EBS salt, L-Ala-OEt 2,4-DMBS salt, and L-Ala-OEt 2,5-DMBS salt were measured in an amount of about 0.3 g each, left standing in a thermostatic chamber at a temperature of 24° C. and a humidity of 40 to 46% RH, and the hygroscopicity was compared based on the weight gain with the lapse of time. A part of the crystal of the L-Ala-OEt HCl salt was liquefied in 30 minutes, and the liquefied portion increased thereafter with the lapse of time. After 100 minutes, the whole mass became like a sherbet.

A short description of data set [3]: Experimental Example 7: evaluation of hygroscopicity by weight gain over time (60 to 66% RH). The settings on record: 24 EC. The procedure:
The L-Ala-OMe HCl salt, L-Ala-OMe 4-EBS salt, L-Ala-OMe 2,4-DMBS salt, and L-Ala-OMe 2,5-DMBS salt were measured in an amount of about 0.3 g each, left standing in a thermostatic chamber at temperature of 24 EC and a humidity of 60 to 66% RH, and the hygroscopicity was compared based on the weight gain with the lapse of time. A part of the crystal of the L-Ala-OMe HCl salt was liquefied in 10 minutes, and the entirety became a sherbet in 20 minute. The liquefied portion increased thereafter with the lapse of time. After 80 minutes, the whole was liquefied.

For the compound `CCOC(=O)[C@H](C)N.Cl` [L-Ala-OEt HCl salt, alanine ethyl ester hydrochloride], the “time to liquefaction of a part of the crystals” value in data set [1] was 60 min. Further, the “time until the entire salt became liquid” value in data set [1] amounted to 750 min. For the same compound, the “weight increase rate (% relative to initial weight)” value in data set [1] (0 minutes) is 0.00%; in data set [1] (1 minutes), 1.63%; in data set [1] (2 minutes), 1.67%; in data set [1] (3 minutes) it was 1.72%; in data set [1] (4 minutes) it was 1.73%; in data set [1] (6 minutes), 1.80%. The “weight increase rate (% relative to initial weight)” value was 1.95% in data set [1] (10 minutes); 2.07% in data set [1] (15 minutes); 2.29% in data set [1] (25 minutes); 2.55% in data set [1] (35 minutes); 2.88% in data set [1] (50 minutes); 3.09% in data set [1] (60 minutes). In addition, the “weight increase rate (% relative to initial weight)” value in data set [1] (75 minutes) is 3.38%; in data set [1] (90 minutes), 3.63%; in data set [1] (120 minutes) it was 4.10%; in data set [1] (150 minutes), 4.41%; in data set [1] (180 minutes), 4.89%; in data set [1] (750 minutes), 14.37%. In addition, the figures for the “state of the crystals” value in data set [1] (60 minutes) and in data set [1] (750 minutes) were “(partly liquefied)” and “(whole liquid)”, respectively. In addition, in data set [2], the “time until a part of the crystal was liquefied” value is 30 min. The “time until the whole mass became like a sherbet” value in data set [2] was found to be 100 min. For the same compound, the “weight increase rate (%)” value in data set [2] (0 minutes) is 0.00%; in data set [2] (15 minutes) it was 2.63%; in data set [2] (30 minutes), 4.56%; in data set [2] (45 minutes), 6.42%; in data set [2] (60 minutes) it was 7.76%; in data set [2] (75 minutes) it was 8.82%. Further, the “weight increase rate (%)” value in data set [2] (90 minutes) is recorded as 9.53%; in data set [2] (120 minutes) it was 9.89%; in data set [2] (150 minutes) it was 10.39%; in data set [2] (180 minutes), 10.69%.

“L-alanine methyl ester 2,4-dimethylbenzenesulfonate [L-Ala-OMe 2,4-DMBS salt]”: the “weight increase rate (%)” value in data set [3] (0 min) came out at 0.00%; in data set [3] (10 min), 0.33%; in data set [3] (20 min), 0.37%; in data set [3] (35 min), 0.37%; in data set [3] (50 min), 0.37%; in data set [3] (65 min), 0.37%. Also, the “weight increase rate (%)” value is 0.37% in data set [3] (80 min); 0.37% in data set [3] (95 min); 0.40% in data set [3] (110 min); 0.43% in data set [3] (125 min); 0.40% in data set [3] (140 min); 0.43% in data set [3] (155 min). The “weight increase rate (%)” value in data set [3] (170 min) was determined as 0.47%; in data set [3] (185 min) it was 0.50%; in data set [3] (200 min), 0.50%.

In the case of “L-alanine methyl ester 4-ethylbenzenesulfonate [L-Ala-OMe 4-EBS salt]”, the “weight increase rate (%)” value in data set [3] (0 min) was 0.00%; in data set [3] (10 min), 0.06%; in data set [3] (20 min), 0.06%; in data set [3] (35 min), 0.06%; in data set [3] (50 min), 0.06%; in data set [3] (65 min) it was 0.03%. The “weight increase rate (%)” value is 0.06% in data set [3] (80 min); 0.06% in data set [3] (95 min); 0.03% in data set [3] (110 min); 0.06% in data set [3] (125 min); 0.06% in data set [3] (140 min); 0.06% in data set [3] (155 min). Also, the “weight increase rate (%)” value in data set [3] (170 min), in data set [3] (185 min) and in data set [3] (200 min) was 0.06% throughout.
